Results as given in patent US9169247B2, “Tetrahydro-beta-carboline derivatives, synthesis and use thereof” (Southern Research Institute, priority 2009, dated 2015).
pIC50: −log10 of the molar value.

Tests used:
Assay in all cases: Growth assay (Cell Titer Glo)
Type in all cases: cell-based
NCI-H522 = settings: Homo sapiens; NCI-H522, lung
Outline: (§1)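 5,000 cells/well, RPMI 1640/5% FBS, 37 °C, 5% CO2; 18-24 h attach; compound dilutions, 0.1% DMSO final; 72 h; luminescent viability read; IC50 via 4-parameter logistic.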

COLO205 = settings: Homo sapiens, COLO 205; COLO205, colon
Outline: as §1

HCC-2998 = settings: Homo sapiens; HCC-2998, colon
Outline: as §1

A498 = settings: Homo sapiens; A498, renal
Outline: as §1

Hs578T = settings: Homo sapiens, Hs-578T, breast
Outline: as §1

With `COC(=O)[C@H]1Cc2c([nH]c3ccccc23)[C@H](c2ccc(Cl)cc2Cl)N1C(=O)CCl` [Compound 2j, (1S,3R) Methyl 1-(2,4-dichlorophenyl)-2-(2-chloroacetyl)-2,3,4,9-tetrahydro-1H-β-carboline-3-carboxylate] the pIC50 (NCI-H522) was 7.80, the pIC50 (COLO205) was 5.84 and the pIC50 (HCC-2998) was 5.65. The pIC50 (A498) was 7.02 and the pIC50 (Hs578T) was 6.66.
